IC50 data for 36 compounds are collected here from US20250353841A1 (BIOGEN MA INC., priority 2022, published 2025).

The subject of the experiment is mutant Huntington (HTT) protein. In words: HTT Mutant HTRF iPSC assay (mHTT protein lowering). In kind it is cell-based. The following applies: human iPSC derived from a HTT patient with a poly-Q49 mutation. (In TR-FRET formats the signal depends on donor and acceptor labels being close together.)
The IC50 is the concentration at which inhibition is half-maximal. Regarding `Cc1cn2nc(-c3cc(F)c4nc(C5CCN(C)CC5)oc4c3)cc(C)c2n1` [Compound 456, 6-(2,8-dimethylimidazo[1,2-b]pyridazin-6-yl)-4-fluoro-2-(1-methylpiperidin-4-yl)benzo[d]oxazole], the half-inhibitory concentration (IC50) fell in the range of 100 to 1000 nM. Take `Cc1cn2nc(-c3cc(F)c4nc(N5CCC6(CCN(C)CC6)C5)oc4c3)cc(C)c2n1` [Compound 468, 6-(2,8-dimethylimidazo[1,2-b]pyridazin-6-yl)-4-fluoro-2-(8-methyl-2,8-diazaspiro[4.5]decan-2-yl)benzo[d]oxazole]: the IC50 was less than 100 nM.

As for `Cc1cn2nc(-c3cc(F)c4nc(C5CCNCC5)cn4c3)ccc2n1` [Compound 2, 6-(8-fluoro-2-(piperidin-4-yl)imidazo[1,2-a]pyridin-6-yl)-2-methylimidazo[1,2-b]pyridazine], the IC50 was less than 100 nM. `Cc1cn2nc(-c3cc(F)c4nc(C5CCNCC5)oc4c3)cc(C)c2n1` [Compound 154, 6-(2,8-dimethylimidazo[1,2-b]pyridazin-6-yl)-4-fluoro-2-(4-piperidyl)-1,3-benzoxazole] returned a 50% inhibitory concentration (IC50) of less than 100 nM. Compound `Cc1cc(-c2cc(F)c3[nH]c(C4CCNCC4)nc3c2)cc2cn(C)nc12` [Compound 142, 5-(7-fluoro-2-(piperidin-4-yl)-1H-benzo[d]imidazol-5-yl)-2,7-dimethyl-2H-indazole] yielded a 50% inhibitory concentration (IC50) of 1000 to 9000 nM.

In the case of `Cc1cn2nc(-c3cc(F)c4nc(C5CCN(C6COC6(C)C)CC5)cn4c3)cc(C)c2n1` (stereo not drawn) [Compound 210, 6-(2-(1-(2,2-dimethyloxetan-3-yl)piperidin-4-yl)-8-fluoroimidazo[1,2-a]pyridin-6-yl)-2,8-dimethylimidazo[1,2-b]pyridazine], the IC50 was in the range of 100 to 1000 nM.

In turn, `Cc1nc2ccc(-c3ccc4nc([C@H]5[C@@H]6CN(C)C[C@@H]65)cn4c3)nn2n1` [Compound 553, 2-methyl-6-(2-((1R,5S,6r)-3-methyl-3-azabicyclo[3.1.0]hexan-6-yl)imidazo[1,2-a]pyridin-6-yl)-[1,2,4]triazolo[1,5-b]pyridazine] displayed an IC50 of 100 to 1000 nM. To `Cc1cn2nc(-c3cc(F)c4nc(NC(=O)C5CCCN(C)C5)nn4c3)cc(C)c2n1` (single isomer, unassigned) [Compound 325] belongs 100 to 1000 nM; to `Cc1cn2nc(-c3cc(F)c4nc(NC(=O)C56CCCN(CC5)C6)cn4c3)cc(C)c2n1` (racemic) [Compound 279], less than 100 nM; to `CNC1CCC(n2cc3cc(-c4cc(C)c5nc(C)cn5n4)cc(F)c3n2)CC1` (stereo not drawn) [Compound 368, 4-(5-(2,8-dimethylimidazo[1,2-b]pyridazin-6-yl)-7-fluoro-2H-indazol-2-yl)-N-methylcyclohexan-1-amine], 100 to 1000 nM.

In turn, `Cc1cn2cc(-c3cc(F)c4[nH]c(C5CCNCC5)nc4c3)cc(C)c2n1` [Compound 147, 5-(2,8-dimethylimidazo[1,2-a]pyridin-6-yl)-7-fluoro-2-(piperidin-4-yl)-1H-benzo[d]imidazole] gave an IC50 of 1000 to 9000 nM. In the case of `Cn1cc2cc(-c3cc(F)c4nn(C5CCNCC5)nc4c3)cc(F)c2n1` [Compound 138, 4-fluoro-6-(7-fluoro-2-methyl-2H-indazol-5-yl)-2-(piperidin-4-yl)-2H-benzo[d][1,2,3]triazole], the IC50 fell in the range of 100 to 1000 nM.

`Cc1cn2nc(-c3cc(F)c4nc(C5CCC(N(C)C)CC5)cn4c3)cc(C)c2n1` (stereo not drawn) [Compound 168, 4-(6-(2,8-dimethylimidazo[1,2-b]pyridazin-6-yl)-8-fluoroimidazo[1,2-a]pyridin-2-yl)-N,N-dimethylcyclohexan-1-amine] gave an IC50 of less than 100 nM.

`CCc1nc(C)cn2cc(-c3cc(F)c4nc(C5CCN(C6CC6)CC5)cn4c3)cc12` [Compound 172, 2-(1-cyclopropylpiperidin-4-yl)-6-(1-ethyl-3-methylpyrrolo[1,2-a]pyrazin-7-yl)-8-fluoroimidazo[1,2-a]pyridine] gave an IC50 of 100 to 1000 nM. `Cc1nc2c(C)cc(-c3cc(F)c4nc(N5CCC(N(C)C)CC5)oc4c3)nn2n1` [Compound 496, 1-(6-(2,8-dimethyl-[1,2,4]triazolo[1,5-b]pyridazin-6-yl)-4-fluorobenzo[d]oxazol-2-yl)-N,N-dimethylpiperidin-4-amine] showed an IC50 of 100 to 1000 nM. Next, `Cn1cc2cc(-c3cc(F)c4nc(CC5CCCNC5)cn4c3)ccc2n1` (stereo not drawn) [Compound 17, 5-(8-fluoro-2-(piperidin-3-ylmethyl)imidazo[1,2-a]pyridin-6-yl)-2-methyl-2H-indazole]: 100 to 1000 nM; `Cc1cn2nc(-c3cc(F)c4nc(C5CCN(C)CC5)nn4c3)cc(C)c2n1` [Compound 434, 6-(2,8-dimethylimidazo[1,2-b]pyridazin-6-yl)-8-fluoro-2-(1-methylpiperidin-4-yl)-[1,2,4]triazolo[1,5-a]pyridine]: 100 to 1000 nM. The compound `Cc1cn2nc(-c3cc(F)c4nc(C[C@H]5C[C@H](N)C5)nn4c3)cc(C)c2n1` [Compound 449, (1r,3r)-3-((6-(2,8-dimethylimidazo[1,2-b]pyridazin-6-yl)-8-fluoro-[1,2,4]triazolo[1,5-a]pyridin-2-yl)methyl)cyclobutan-1-amine] registered a half-maximal inhibitory concentration (IC50) of 100 to 1000 nM.

Turning to `Cc1cn2nc(-c3cc(F)c4nc(N5CCC(CN(C)CC6CC6)C5)oc4c3)cc(C)c2n1` (stereo not drawn) [Compound 489, 1-cyclopropyl-N-((1-(6-(2,8-dimethylimidazo[1,2-b]pyridazin-6-yl)-4-fluorobenzo[d]oxazol-2-yl)pyrrolidin-3-yl)methyl)-N-methylmethanamine], the half-maximal inhibitory concentration (IC50) is less than 100 nM. In turn, `Cc1cn2cc(-c3cc(F)c4nc(C5CCNCC5)oc4c3)cc(C)c2n1` [Compound 155, 6-(2,8-dimethylimidazo[1,2-a]pyridin-6-yl)-4-fluoro-2-(piperidin-4-yl)benzo[d]oxazole] had an IC50 of 1000 to 9000 nM. `Cc1cn2nc(-c3cc(F)c4nc(CC5CCNCC5)cn4c3)cc(C)c2n1` [Compound 238, 6-(8-fluoro-2-(piperidin-4-ylmethyl)imidazo[1,2-a]pyridin-6-yl)-2,8-dimethylimidazo[1,2-b]pyridazine] registered an IC50 of less than 100 nM.

`Cc1cn2nc(-c3cc(F)c4nc(C5CCN(C6CCOC6)CC5)cn4c3)cc(C)c2n1` (stereo not drawn) [Compound 192, 6-(8-fluoro-2-(1-(tetrahydrofuran-3-yl)piperidin-4-yl)imidazo[1,2-a]pyridin-6-yl)-2,8-dimethylimidazo[1,2-b]pyridazine] came in with an IC50 of less than 100 nM. Next, `Cc1cn2nc(-c3cc(F)c4nc(N5CCC(N(C)C)CC5)oc4c3)cc(C)c2n1` [Compound 475, 1-(6-(2,8-dimethylimidazo[1,2-b]pyridazin-6-yl)-4-fluorobenzo[d]oxazol-2-yl)-N,N-dimethylpiperidin-4-amine]: less than 100 nM. Next, `Cc1cn2nc(-c3cc(F)c4[nH]c(C5CCN(C6CCC6)CC5)nc4c3)cc(C)c2n1` [Compound 426, 6-(2-(1-cyclobutylpiperidin-4-yl)-7-fluoro-1H-benzo[d]imidazol-5-yl)-2,8-dimethylimidazo[1,2-b]pyridazine]: less than 100 nM; `Cc1cn2nc(-c3cc(F)c4nc(C5CC6(CCN(C)CC6)C5)oc4c3)cc(C)c2n1` [Compound 458, 6-(2,8-dimethylimidazo[1,2-b]pyridazin-6-yl)-4-fluoro-2-(7-methyl-7-azaspiro[3.5]nonan-2-yl)benzo[d]oxazole]: 100 to 1000 nM. `COCCN1CCC(n2cc3cc(-c4cc(C(F)(F)F)c5nc(C)cn5n4)cc(F)c3n2)CC1` [Compound 373, 6-(7-fluoro-2-(1-(2-methoxyethyl)piperidin-4-yl)-2H-indazol-5-yl)-2-methyl-8-(trifluoromethyl)imidazo [1,2-b]pyridazine] had an IC50 of less than 100 nM. In turn, `Cn1cc2cc(-c3cc(F)c4nc(C56CCC(N)(C5)C6)cn4c3)cc(F)c2n1` [Compound 72, 4-(8-fluoro-6-(7-fluoro-2-methyl-2H-indazol-5-yl)imidazo[1,2-a]pyridin-2-yl)bicyclo[2.1.1]hexan-1-amine] came in with an IC50 of 1000 to 9000 nM. Next, `Cc1cn2nc(-c3cc(F)c4nc(C5CC6(CNC6)C5)cn4c3)cc(C)c2n1` [Compound 107]: 100 to 1000 nM; `Cn1cc2cc(-c3cc(F)c4nc(C5CCNCC5)cn4c3)cc(C(F)F)c2n1` [Compound 84, 7-(difluoromethyl)-5-(8-fluoro-2-(piperidin-4-yl)imidazo[1,2-a]pyridin-6-yl)-2-methyl-2H-indazole]: less than 100 nM; `Cc1cn2nc(-c3cc(F)c4nc(NC(=O)C5CCNCC5)cn4c3)cc(C)c2n1` [Compound 250, N-(6-(2,8-dimethylimidazo[1,2-b]pyridazin-6-yl)-8-fluoroimidazo[1,2-a]pyridin-2-yl)piperidine-4-carboxamide]: 100 to 1000 nM.

`CCN1CCC(c2cn3cc(-c4cc(F)c5nn(C)cc5c4)cc(F)c3n2)CC1` [Compound 5, 5-(2-(1-ethylpiperidin-4-yl)-8-fluoroimidazo[1,2-a]pyridin-6-yl)-7-fluoro-2-methyl-2H-indazole]: the IC50 lay in the range of 100 to 1000 nM. For `CCc1c[nH]c2ncc(-c3cc(F)c4nc(C5CCNCC5)cn4c3)cc12` [Compound 40, 6-(3-ethyl-1H-pyrrolo[2,3-b]pyridin-5-yl)-8-fluoro-2-(piperidin-4-yl)imidazo[1,2-a]pyridine], the IC50 lay within 1000 to 9000 nM. In turn, `Cc1cn2nc(-c3cc(F)c4nc(C5CCNC6(CC6)C5)cn4c3)cc(C)c2n1` (stereo not drawn) [Compound 110, 6-(8-fluoro-2-(4-azaspiro[2.5]octan-7-yl)imidazo[1,2-a]pyridin-6-yl)-2,8-dimethylimidazo[1,2-b]pyridazine] showed an IC50 of less than 100 nM. Regarding `Cc1cn2nc(-c3cc(F)c4nc(NC(=O)C5COC5)cn4c3)cc(C)c2n1` [Compound 256, N-(6-(2,8-dimethylimidazo[1,2-b]pyridazin-6-yl)-8-fluoroimidazo[1,2-a]pyridin-2-yl)oxetane-3-carboxamide], the 50% inhibitory concentration (IC50) is 100 to 1000 nM. `Cc1cn2nc(-c3cc(F)c4nc(C5CCN(C)CC5)cn4c3)cc(C)c2n1` [Compound 111, 6-(8-fluoro-2-(1-methylpiperidin-4-yl)imidazo[1,2-a]pyridin-6-yl)-2,8-dimethylimidazo[1,2-b]pyridazine]: the IC50 is less than 100 nM. The compound `Cc1cn2nc(-c3cc(F)c4nc([C@]56CC[C@@H](C5)NC6)cn4c3)cc(C)c2n1` (single isomer, unassigned) [Compound 115] gave an IC50 of 100 to 1000 nM.
